# Data as given in ChEMBL document CHEMBL1130770, “Solid phase synthesis of benzylamine-derived sulfonamide library” (Bioorg Med Chem Lett, 1998).
# Target: Prothrombin (Homo sapiens, UniProt P00734)
# Assay: Inhibition constant was evaluated for inhibitory activity against the blood coagulant thrombin
row,Structure (SMILES),Ki [nM]
1,CN(C(=O)[C@H](Cc1ccc(CN)cc1)NS(=O)(=O)c1ccc2ccccc2c1)C1CCCC1,50
2,NCc1ccc(C[C@H](NS(=O)(=O)c2ccc3ccccc3c2)C(=O)N2CCC(O)CC2)cc1,15600
3,NCc1ccc(C[C@H](NS(=O)(=O)c2ccc3ccccc3c2)C(=O)N2CCCC2)cc1,200
4,CN(C)C(=O)[C@H](Cc1ccc(CN)cc1)NS(=O)(=O)c1ccc2ccccc2c1,3060
5,NCc1ccc(C[C@H](NS(=O)(=O)c2ccc3ccccc3c2)C(=O)NCc2ccccc2)cc1,97200
6,CC(C)N(C)C(=O)[C@H](Cc1ccc(CN)cc1)NS(=O)(=O)c1ccc2ccccc2c1,600
7,CC(C)NC(=O)[C@H](Cc1ccc(CN)cc1)NS(=O)(=O)c1ccc2ccccc2c1,31700
8,CCCc1ccc(S(=O)(=O)N[C@@H](Cc2ccc(CN)cc2)C(=O)N(C)C2CCCC2)cc1,10
